The test system of experiment [1] is KB Cell. Nature of the experiment: Inhibition of multiplication (growth) of KB cells, in vitro. It is filed as cell-based, human. The settings on record: Homo sapiens, 72 h, concentration for 50% growth inhibition vs control, compound added Day 1, cells counted Day 4, read-out: Conc.(ED50). How it is done:
KB cells, carcinomatous cell tumors, were transferred to in vitro floatation incubator systems, and added respectively with compounds of Examples 1 to 33. The results of cultivation added with these compounds were compared with the results of the control which was not added with any compound.
Cell used: KB Cell (Originating from human mouth epidermal cancer) Culture medium: Eagles minimal essential medium (MEM) supplemented with 10% calf serum Cultivation: 37°C carbon dioxide gas incubator (5% CO₂)
Day 0: KB cells were diluted in the culture medium to adjust the KB cell density to 2 x 10⁴/ml. Three ml of the cell suspension was inoculated in each of 60 mm plastic dishes. Two dishes per standard dosage were used. Day 1: Test compound was added to the medium so that the final concentrations were set to 100, 30, 10, 3 and 1 µg/ml. Day 4: Cells were scraped off from the dish using trypsin, and the cell number was countered using a Corter counter.
In generally accordance with the stipulations set forth by the National Cancer Institute (NCI), U.S.A., the concentration of compound necessary for exerting 50% growth inhibition (ED₅₀) compared to the control was determined. A compound was judged as effective when ED₅₀ was less than 4 µg/ml.

The test system of experiment [2] is P-388. Nature of the experiment: Prolongation of life span in P-388 implanted mice. In kind it is in vivo, CDF mouse. As to conditions: for response vs control in vivo at 100 mg/kg: dosage 100 mg/kg; for cure: cured mice per group of 6. The procedure: Animal used: CDF mouse (6 mice/group) Tumor: P-388 Number of implanted cells: 10⁶ cells/mouse Implanted site: i.p. Day of administration: Day 1 and Day 5 Dosage: LD₅₀ or 400 mg/kg/day at the maximum

Where [3] appears, read: P388, ip, T/C %, Day 1 and Day 5, P-388 10⁶ cells/mouse i.p., read-out: Ratio of Life Prolongation (%).
The mark [4] stands for this setting: P388, ip, T/C %, dosage 200 mg/kg, Day 1 and Day 5, P-388 10⁶ cells/mouse i.p., read-out: Ratio of Life Prolongation (%).
Setting [5] is: P388, ip, T/C %, dosage 400 mg/kg, Day 1 and Day 5, P-388 10⁶ cells/mouse i.p., read-out: Ratio of Life Prolongation (%).
Where [6] appears, read: P388, ip, T/C %, dosage 12.5 mg/kg, Day 1 and Day 5, P-388 10⁶ cells/mouse i.p., read-out: Ratio of Life Prolongation (%).
Setting [7] is: P388, ip, T/C %, dosage 25 mg/kg, Day 1 and Day 5, P-388 10⁶ cells/mouse i.p., read-out: Ratio of Life Prolongation (%).
[8] abbreviates: P388, ip, T/C %, dosage 50 mg/kg, Day 1 and Day 5, P-388 10⁶ cells/mouse i.p., read-out: Ratio of Life Prolongation (%).

≈ marks a conversion by molar mass, not a printed value. Bounds are passed on as bounds.

`COc1cc(NS(C)(=O)=O)ccc1Nc1c2cccc(C)c2nc2c1sc1ccccc12` [Compound 32, 6-(4-methanesulfonamide-2-methoxyanilino)-10-methylbenzothieno[3,2-b]quinoline]: the IC50 in experiment [1] came out at 1.4 µg/mL (≈ 3.02 µM). Besides, the response vs control in vivo at 100 mg/kg in experiment [2] (setting [3]) amounted to 137%. Further, the response vs control in vivo at 200 mg/kg in experiment [2] (setting [4]) is 167%. The response vs control in vivo at 400 mg/kg in experiment [2] (setting [5]) was found to be 228%.
As to `COc1cc(NS(C)(=O)=O)ccc1Nc1c2ccccc2nc2c1[nH]c1ccc(NC3OC(CO)C(O)C(O)C3O)cc12` (stereo not shown) [Compound 24, N-{4-[(7-(glycosyl-1-amino)-10H-indolo[3,2-b]quinoline-11-yl)amino]-3-methoxyphenyl} methanesulfonamide], in experiment [1], the IC50 was under 0.3 µg/mL. Besides, the response vs control in vivo at 12.5 mg/kg in experiment [2] (setting [6]) was found to be 213%. For the same compound, the response vs control in vivo at 25 mg/kg in experiment [2] (setting [7]) came to 145%. For the same compound, the response vs control in vivo at 50 mg/kg in experiment [2] (setting [8]) stood at 90%. For the same compound, in experiment [2] (dosage 12.5 mg/kg), the cure is given as 2/6.
Turning to `COc1cc(NS(C)(=O)=O)ccc1Nc1c2cccc(C)c2nc2c1[nH]c1cc(C)ccc12` [Compound 11, 6-(4-methanesulfonamide-2-methoxyanilino)-3,10-dimethylindolo[3,2-b]quinoline], the IC50 in experiment [1] is under 0.3 µg/mL. In addition, the response vs control in vivo at 12.5 mg/kg in experiment [2] (setting [6]) amounted to 315%. Further, in experiment [2] (setting [7]), the response vs control in vivo at 25 mg/kg was found to be 294%. Moreover, in experiment [2] (setting [8]), the response vs control in vivo at 50 mg/kg turned out to be 315%. The cure in experiment [2] (dosage 12.5 mg/kg) was 1/6; in experiment [2] (dosage 25 mg/kg) it was 2/6; in experiment [2] (dosage 50 mg/kg), 1/6.
Take `COc1cc(NS(C)(=O)=O)ccc1Nc1c2ccccc2nc2c1sc1cccc(C)c12` [Compound 33, 6-(4-methanesulfonamide-2-methoxyanilino)-1-methylbenzothieno[3,2-b]quinoline]: the IC50 in experiment [1] was under 0.3 µg/mL. Moreover, the response vs control in vivo at 100 mg/kg in experiment [2] (setting [3]) amounted to 191%. In addition, the response vs control in vivo at 200 mg/kg in experiment [2] (setting [4]) was 255%. The response vs control in vivo at 400 mg/kg in experiment [2] (setting [5]) came out at 280%. Also, the cure in experiment [2] (dosage 200 mg/kg) and in experiment [2] (dosage 400 mg/kg) was 1/6 in each case.
As for `COc1cc(NS(C)(=O)=O)ccc1Nc1c2cccc(C)c2nc2c1[nH]c1ccccc12` [Compound 9], the IC50 in experiment [1] is under 0.3 µg/mL. For the same compound, in experiment [2] (P388, ip, T/C %, dosage 1.56 mg/kg, Day 1 and Day 5, P-388 10⁶ cells/mouse i.p., read-out: Ratio of Life Prolongation (%)), the response vs control in vivo at 1.56 mg/kg stood at 131%. The response vs control in vivo at 3.12 mg/kg in experiment [2] (P388, ip, T/C %, dosage 3.12 mg/kg, Day 1 and Day 5, P-388 10⁶ cells/mouse i.p., read-out: Ratio of Life Prolongation (%)) came out at 165%. In addition, the response vs control in vivo at 6.25 mg/kg in experiment [2] (P388, ip, T/C %, dosage 6.25 mg/kg, Day 1 and Day 5, P-388 10⁶ cells/mouse i.p., read-out: Ratio of Life Prolongation (%)) was 168%. Also, the response vs control in vivo at 12.5 mg/kg in experiment [2] (setting [6]) is 198%. The response vs control in vivo at 25 mg/kg in experiment [2] (setting [7]) came to 235%. Besides, the response vs control in vivo at 50 mg/kg in experiment [2] (setting [8]) was determined as 305%. For the same compound, the cure in experiment [2] (dosage 25 mg/kg) was 1/6; in experiment [2] (dosage 50 mg/kg), 4/6.
On to `COc1cc(NS(C)(=O)=O)ccc1Nc1c2ccccc2nc2c1[nH]c1ccc(NS(C)(=O)=O)cc12` [Compound 26, 2-methanesulfonamide-6-(4-methanesulfonamide-2-methoxyanilino)indolo[3,2-b]quinoline], for which the IC50 in experiment [1] is under 0.3 µg/mL. Also, the response vs control in vivo at 12.5 mg/kg in experiment [2] (setting [6]) worked out at 126%. In experiment [2] (setting [7]), the response vs control in vivo at 25 mg/kg was 111%.
`COc1cc(NS(C)(=O)=O)ccc1Nc1c2cccc(C)c2nc2c1oc1cccc(C)c12` [Compound 28, 6-(4-methanesulfonamide-2-methoxyanilino)-1,10-dimethylbenzofurano[3,2-b]quinoline]: the IC50 in experiment [1] is under 0.3 µg/mL. The response vs control in vivo at 50 mg/kg in experiment [2] (setting [8]) is 204%. The response vs control in vivo at 100 mg/kg in experiment [2] (setting [3]) amounted to 269%.
Turning to `COc1cc(NS(C)(=O)=O)ccc1Nc1c2ccccc2nc2c1[nH]c1cccc(C)c12` [Compound 16, 6-(4-methanesulfonamide-2-methoxyanilino)-1-methylindolo[3,2-b]quinoline], the IC50 in experiment [1] is under 0.3 µg/mL. Moreover, the response vs control in vivo at 12.5 mg/kg in experiment [2] (setting [6]) was 240%. The response vs control in vivo at 25 mg/kg in experiment [2] (setting [7]) was 288%. The response vs control in vivo at 50 mg/kg in experiment [2] (setting [8]) was 269%. The cure in experiment [2] (dosage 12.5 mg/kg) and in experiment [2] (dosage 25 mg/kg) was 2/6 in each case.

(Values after patent EP0376166A1, “Condensed quinoline system compound and process of preparation thereof” (MECT CORPORATION, priority 1988, dated 1990).)
